According to patent publication US8461107B2 (Merck Sharp & Dohme Corp., priority 2008, dated 2013):

Each compound was assayed against T1, HCV genotype 1b (BK) NS3 modified with a R155K mutation (Hepatitis C virus genotype 1b, UniProt P26663, R1181K) (assay: HCV NS3 protease time-resolved fluorescence (TRF) assay, NS3 protease 1b R155K Ki activity). Settings: HCV genotype 1b (BK) NS3 with R155K mutation; TRF peptide substrate 100 nM; Ki derived from IC50.
T1 construct: HCV genotype 1b (BK) NS3 modified with a R155K mutation
Type: biochemical
Outline: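 Pre-incubation of NS3/NS4A protease (genotype 1b BK, R155K) with inhibitor for 30 min, then 1 h at room temperature with 100 nM TRF peptide substrate in pH 7.5 HEPES buffer with 10 mM DTT. Reaction quenched with pH 5.5 MES; time-resolved fluorescence read (ex 340/em 615 nm). Ki derived from four-parameter IC50 fit via IC50=Ki(1+[S]/KM).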
In the case of `CC[C@@H]1C[C@]1(NC(=O)[C@@H]1C[C@@H]2CN1C(=O)[C@H](C1CCCC1)NC(=O)O[C@@H]1CCC[C@H]1CCCCCn1c(nc3cc(OC)ccc3c1=O)O2)C(=O)NS(=O)(=O)C1CC1` [(3aR,7S,10S,12R,25aR)-7-cyclopentyl-N-((1R,2R)-1-{[(cyclopropylsulfonyl)amino]carbonyl}-2-ethylcyclopropyl)-16-methoxy-5,8,19-trioxo-1,2,3,3a,5,6,7,8,11,12,21,22,23,24,25,25a-hexadecahydro-10H,19H-9,12-methanocyclopenta[18,19][1,10,3,6,12]dioxatriazacyclononadecino[11,12-b]quinazoline-10-carboxamide], the Ki is reported as 100 to 500 pM. Compound `CC[C@@H]1C[C@]1(NC(=O)[C@@H]1C[C@@H]2CN1C(=O)[C@H](C1CCCC1)NC(=O)O[C@@H]1CCC[C@H]1CCCCCn1c(cc3cc(OC)ccc3c1=O)O2)C(=O)NS(=O)(=O)C1CC1` [(3aR,7S,10S,12R,25aR)-7-cyclopentyl-N-((1R,2R)-1-{[(cyclopropylsulfonyl)amino]carbonyl}-2-ethylcyclopropyl)-16-methoxy-5,8,19-trioxo-1,2,3,3a,5,6,7,8,11,12,21,22,23,24,25,25a-hexadecahydro-10H,19H-9,12-methanocyclopenta[18,19][1,10,3,6,12]dioxatriazacyclononadecino[12,11-b]isoquinoline-10-carboxamide] has a Ki of 100 to 500 pM. `CC[C@@H]1C[C@]1(NC(=O)[C@@H]1C[C@@H]2CN1C(=O)[C@H](C1CCCC1)NC(=O)O[C@@H]1CCC[C@H]1CCCCCn1c(nc3cccc(OC)c3c1=O)O2)C(=O)NS(=O)(=O)C1CC1` [(3aR,7S,10S,12R,25aR)-7-cyclopentyl-N-((1R,2R)-1-{[(cyclopropylsulfonyl)amino]carbonyl}-2-ethylcyclopropyl)-18-methoxy-5,8,19-trioxo-1,2,3,3a,5,6,7,8,11,12,21,22,23,24,25,25a-hexadecahydro-10H,19H-9,12-methanocyclopenta[18,19][1,10,3,6,12]dioxatriazacyclononadecino[11,12-b]quinazoline-10-carboxamide] was tested, and the Ki was 500 to 1000 pM. Compound `C=C[C@@H]1C[C@]1(NC(=O)[C@@H]1C[C@@H]2CN1C(=O)[C@H](C1CCCC1)NC(=O)O[C@@H]1CCC[C@H]1CCCCCn1c(nc3ccccc3c1=O)O2)C(=O)NS(=O)(=O)C1CC1` [(3aR,7S,10S,12R,25aR)-7-cyclopentyl-N-((1R,2S)-1-{[(cyclopropylsulfonyl)amino]carbonyl}-2-vinylcyclopropyl)-5,8,19-trioxo-1,2,3,3a,5,6,7,8,11,12,21,22,23,24,25,25a-hexadecahydro-10H,19H-9,12-methanocyclopenta[18,19][1,10,3,6,12]dioxatriazacyclononadecino[11,12-b]quinazoline-10-carboxamide] has a Ki of under 100 pM. For `C=C[C@@H]1C[C@]1(NC(=O)[C@@H]1C[C@@H]2CN1C(=O)[C@H](C1CCCC1)NC(=O)O[C@@H]1CCC[C@H]1CCCCCn1c(nc3cc(C(F)(F)F)ccc3c1=O)O2)C(=O)NS(=O)(=O)C1CC1` [(3aR,7S,10S,12R,25aR)-7-cyclopentyl-N-((1R,2S)-1-{[(cyclopropylsulfonyl)amino]carbonyl}-2-vinylcyclopropyl)-5,8,19-trioxo-16-(trifluoromethyl)-1,2,3,3a,5,6,7,8,11,12,21,22,23,24,25,25a-hexadecahydro-10H,19H-9,12-methanocyclopenta[18,19][1,10,3,6,12]dioxatriazacyclononadecino[11,12-b]quinazoline-10-carboxamide], the Ki was 100 to 500 pM. `C=C[C@@H]1C[C@]1(NC(=O)[C@@H]1C[C@@H]2CN1C(=O)[C@H](C1CCCC1)NC(=O)O[C@@H]1CCC[C@H]1CCCCCn1c(nc3c(OC)cccc3c1=O)O2)C(=O)NS(=O)(=O)C1CC1` [(3aR,7S,10S,12R,25aR)-7-cyclopentyl-N-((1R,2S)-1-{[(cyclopropylsulfonyl)amino]carbonyl}-2-vinylcyclopropyl)-15-methoxy-5,8,19-trioxo-1,2,3,3a,5,6,7,8,11,12,21,22,23,24,25,25a-hexadecahydro-10H,19H-9,12-methanocyclopenta[18,19][1,10,3,6,12]dioxatriazacyclononadecino[11,12-b]quinazoline-10-carboxamide] showed a Ki of under 100 pM. `C=C[C@@H]1C[C@]1(NC(=O)[C@@H]1C[C@@H]2CN1C(=O)[C@H](C1CCCC1)NC(=O)O[C@@H]1CCC[C@H]1CCCCCn1c(nc3cc(OC)ccc3c1=O)O2)C(=O)NS(=O)(=O)C1CC1` [(3aR,7S,10S,12R,25aR)-7-cyclopentyl-N-((1R,2S)-1-{[(cyclopropylsulfonyl)amino]carbonyl}-2-vinylcyclopropyl)-16-methoxy-5,8,19-trioxo-1,2,3,3a,5,6,7,8,11,12,21,22,23,24,25,25a-hexadecahydro-10H,19H-9,12-methanocyclopenta[18,19][1,10,3,6,12]dioxatriazacyclononadecino[11,12-b]quinazoline-10-carboxamide] was tested, and the Ki was under 100 pM. `C=C[C@@H]1C[C@]1(NC(=O)[C@@H]1C[C@@H]2CN1C(=O)[C@H](C1CCCC1)NC(=O)O[C@@H]1CCC[C@H]1CCCCCn1c(cc3cc(OC)ccc3c1=O)O2)C(=O)NS(=O)(=O)C1CC1` [(3aR,7S,10S,12R,25aR)-7-cyclopentyl-N-((1R,2S)-1-{[(cyclopropylsulfonyl)amino]carbonyl}-2-vinylcyclopropyl)-16-methoxy-5,8,19-trioxo-1,2,3,3a,5,6,7,8,11,12,21,22,23,24,25,25a-hexadecahydro-10H,19H-9,12-methanocyclopenta[18,19][1,10,3,6,12]dioxatriazacyclononadecino[12,11-b]isoquinoline-10-carboxamide] showed a Ki of under 100 pM. `C=C[C@@H]1C[C@]1(NC(=O)[C@@H]1C[C@@H]2CN1C(=O)[C@H](C1CCCC1)NC(=O)O[C@@H]1CCC[C@H]1CCCCCn1c(nc3cc(C)ccc3c1=O)O2)C(=O)NS(=O)(=O)C1CC1` [(3aR,7S,10S,12R,25aR)-7-cyclopentyl-N-((1R,2S)-1-{[(cyclopropylsulfonyl)amino]carbonyl}-2-vinylcyclopropyl)-16-methyl-5,8,19-trioxo-1,2,3,3a,5,6,7,8,11,12,21,22,23,24,25,25a-hexadecahydro-10H,19H-9,12-methanocyclopenta[18,19][1,10,3,6,12]dioxatriazacyclononadecino[11,12-b]quinazoline-10-carboxamide] was tested, and the Ki was under 100 pM. `C=C[C@@H]1C[C@]1(NC(=O)[C@@H]1C[C@@H]2CN1C(=O)[C@H](C1CCCC1)NC(=O)O[C@@H]1CCC[C@H]1CCCCCn1c(cc3ccc(F)cc3c1=O)O2)C(=O)NS(=O)(=O)C1CC1` [(3aR,7S,10S,12R,25aR)-7-cyclopentyl-N-((1R,2S)-1-{[(cyclopropylsulfonyl)amino]carbonyl}-2-vinylcyclopropyl)-17-fluoro-5,8,19-trioxo-1,2,3,3a,5,6,7,8,11,12,21,22,23,24,25,25a-hexadecahydro-10H,19H-9,12-methanocyclopenta[18,19][1,10,3,6,12]dioxatriazacyclononadecino[12,11-b]isoquinoline-10-carboxamide] gave a Ki of under 100 pM. Compound `C=C[C@@H]1C[C@]1(NC(=O)[C@@H]1C[C@@H]2CN1C(=O)[C@H](C1CCCC1)NC(=O)O[C@@H]1CCC[C@H]1CCCCCn1c(nc3cccc(OC)c3c1=O)O2)C(=O)NS(=O)(=O)C1CC1` [(3aR,7S,10S,12R,25aR)-7-cyclopentyl-N-((1R,2S)-1-{[(cyclopropylsulfonyl)amino]carbonyl}-2-vinylcyclopropyl)-18-methoxy-5,8,19-trioxo-1,2,3,3a,5,6,7,8,11,12,21,22,23,24,25,25a-hexadecahydro-10H,19H-9,12-methanocyclopenta[18,19][1,10,3,6,12]dioxatriazacyclononadecino[11,12-b]quinazoline-10-carboxamide] has a Ki of 100 to 500 pM. For `C=C[C@@H]1C[C@]1(NC(=O)[C@@H]1C[C@@H]2CN1C(=O)[C@H](C(C)(C)C)NC(=O)O[C@@H]1CCC[C@H]1CCCCCn1c(cc3cc(Cl)ccc3c1=O)O2)C(=O)NS(=O)(=O)C1CC1` [(3aR,7S,10S,12R,25aR)-7-tert-butyl-16-chloro-N-((1R,2S)-1-{[(cyclopropylsulfonyl)amino]carbonyl}-2-vinylcyclopropyl)-5,8,19-trioxo-1,2,3,3a,5,6,7,8,11,12,21,22,23,24,25,25a-hexadecahydro-10H,19H-9,12-methanocyclopenta[18,19][1,10,3,6,12]dioxatriazacyclononadecino[12,11-b]isoquinoline-10-carboxamide], the Ki was under 100 pM. Compound `CC[C@@H]1C[C@]1(NC(=O)[C@@H]1C[C@@H]2CN1C(=O)[C@H](C(C)(C)C)NC(=O)O[C@@H]1CCC[C@H]1CCCCCn1c(cc3cc(OC)ccc3c1=O)O2)C(=O)NS(=O)(=O)C1CC1` [(3aR,7S,10S,12R,25aR)-7-tert-butyl-N-((1R,2R)-1-{[(cyclopropylsulfonyl)amino]carbonyl}-2-ethylcyclopropyl)-16-methoxy-5,8,19-trioxo-1,2,3,3a,5,6,7,8,11,12,21,22,23,24,25,25a-hexadecahydro-10H,19H-9,12-methanocyclopenta[18,19][1,10,3,6,12]dioxatriazacyclononadecino[12,11-b]isoquinoline-10-carboxamide] has a Ki of 100 to 500 pM. For `C=C[C@@H]1C[C@]1(NC(=O)[C@@H]1C[C@@H]2CN1C(=O)[C@H](C(C)(C)C)NC(=O)O[C@@H]1CCC[C@H]1CCCCCn1c(cc3cc(OC)ccc3c1=O)O2)C(=O)NS(=O)(=O)C1CC1` [(3aR,7S,10S,12R,25aR)-7-tert-butyl-N-((1R,2S)-1-{[(cyclopropylsulfonyl)amino]carbonyl}-2-vinylcyclopropyl)-16-methoxy-5,8,19-trioxo-1,2,3,3a,5,6,7,8,11,12,21,22,23,24,25,25a-hexadecahydro-10H,19H-9,12-methanocyclopenta[18,19][1,10,3,6,12]dioxatriazacyclononadecino[12,11-b]isoquinoline-10-carboxamide], the Ki was under 100 pM.
